Experimental data taken from paper PMC7932537, “Quantitative profiling of protease specificity” (PLoS Computational Biology, 2021).

How the values were obtained:
MMP-9 = experiment: Substrate phage display with NGS: relative probability (RP) of P3-P1' tetramer clusters; type: biochemical, human; settings: for normalized RP - MMP9: normalized RP of matching tetramer; for corresponding MMP9 relative probability (RP): MMP2 tetramers from unique substrates, RP of same tetramer for MMP9
MMP-2 = experiment: as above; type: biochemical, human; settings: for relative probability (RP) of matching tetramer: P3-P1' tetramer matching the MS detected MMP2 cleavage sequence, RP_above_4.5; for normalized RP - MMP2: normalized RP of matching tetramer; for MMP2 relative probability (RP): MMP2 tetramers from unique substrates, unrounded values
[1] = MMP9, RP of matching P3-P1' tetramer, common set of MMP2-9 selectome
[2] = MMP2, RP of matching P3-P1' tetramer, common set of MMP2-9 selectome, RP above KL threshold
[3] = RP of matching tetramer, unique part of MMP2 selectome
[4] = RP of matching tetramer, unique part of MMP2 selectome, RP above KL threshold
[5] = RP according to MMP2, P3-P1' tetramer of unique physiologic MMP2 substrates from MEROPS
[6] = MMP9, RP of the P3-P1' tetramer contained in the hexamer substrate (substrate phage display, NGS)
[7] = RP of the P3-P1' tetramer cluster contained in the hexamer, 200 nM MMP-2, 2 h, 37°C, two rounds of selection
[8] = RP of the P3-P1' tetramer, MMP9 substrate phage display/NGS, tetramers of physiologic MEROPS substrates common to MMP2 and MMP9
[9] = RP of the P3-P1' tetramer, MMP2 substrate phage display/NGS, tetramers of physiologic MEROPS substrates common to MMP2 and MMP9
[10] = MMP9, RP of the P3-P1' tetramer matching the MS detected cleavage, RP above 4.7, substrate phage display with NGS
[11] = RP of matching tetramer, common MMP2-9 selectome, RP above KL threshold
[12] = RP of matching tetramer, common MMP2-9 selectome
[13] = RP according to MMP9, P3-P1' tetramer of unique physiologic MMP9 substrates from MEROPS

IHSL
relative probability (RP) (acc.to MMP9) (MMP-9; [1]): 4.86 | relative probability (RP) (acc.to MMP2) (MMP-2; [2]): 6.87 | relative probability (RP) of matching tetramer (MMP-2): 6.87

PADF
relative probability (RP) (acc.to MMP9) (MMP-9; [1]): 12.85 | relative probability (RP) (acc.to MMP2) (MMP-2; [2]): 20.44 | relative probability (RP) of matching tetramer (MMP-2): 20.44

SAPL
relative probability (RP) (acc.to MMP9) (MMP-9; [3]): 2.49 | normalized RP - MMP9 (MMP-9; unique part of MMP2 selectome): 0.04754 | relative probability (RP) of matching tetramer (MMP-2): 18.44 | relative probability (RP) (acc.to MMP2) (MMP-2; [4]): 18.44 | normalized RP - MMP2 (MMP-2; unique part of MMP2 selectome): 0.5049

EMRL
MMP9 relative probability (RP) (MMP-9; MMP9 tetramers from unique substrates, unrounded values): 0.2922 | corresponding MMP2 relative probability (RP) (MMP-2; MMP9 tetramers from unique substrates, RP of same tetramer for MMP2): 11.559

MSAF
corresponding MMP9 relative probability (RP) (MMP-9): 1.271 | MMP2 relative probability (RP) (MMP-2): 20.9521 | Relative probability (RP) rank (MMP-2; [5]): 1585 | relative probability (RP) (MMP-2; [5]): 20.95

LSPFGQ
relative probability (RP) (MMP-9; [6]): 36.0266 | relative probability (RP) (MMP-2; [7]): 16.8686

PPGK
relative probability (RP) (acc.to MMP9) (MMP-9; [8]): 0 | relative probability (RP) (acc.to MMP2) (MMP-2; [9]): 0.14

PKGQ
relative probability (RP) (acc.to MMP9) (MMP-9; [8]): 35.93 | relative probability (RP) (acc.to MMP2) (MMP-2; [9]): 21.45

PSNMEG
relative probability (RP) (MMP-9; [6]): 45.3884 | relative probability (RP) (MMP-2; [7]): 32.3748

IQSI
relative probability (RP) (acc.to MMP9) (MMP-9; [3]): 0.41 | normalized RP - MMP9 (MMP-9; unique part of MMP2 selectome): 0.007827 | relative probability (RP) of matching tetramer (MMP-2): 15.56 | relative probability (RP) (acc.to MMP2) (MMP-2; [4]): 15.56 | normalized RP - MMP2 (MMP-2; unique part of MMP2 selectome): 0.4261

ARAY
relative probability (RP) (acc.to MMP9) (MMP-9; [1]): 36.14 | relative probability (RP) (MMP-9; [10]): 36.14 | relative probability (RP) (acc.to MMP9) (MMP-9; [11]): 36.14 | relative probability (RP) (acc.to MMP2) (MMP-2; [2]): 20.14 | relative probability (RP) of matching tetramer (MMP-2): 20.14 | relative probability (RP) (acc.to MMP2) (MMP-2; [12]): 20.14

QSPINL
relative probability (RP) (MMP-9; [6]): 44.8884 | relative probability (RP) (MMP-2; [7]): 31.6393

SKYL
relative probability (RP) (acc.to MMP9) (MMP-9; [8]): 0.25 | relative probability (RP) (acc.to MMP2) (MMP-2; [9]): 4.49

AKAL
relative probability (RP) (acc.to MMP9) (MMP-9; [1]): 37.29 | relative probability (RP) (MMP-9; [10]): 37.29 | relative probability (RP) (acc.to MMP9) (MMP-9; [11]): 37.29 | relative probability (RP) (acc.to MMP2) (MMP-2; [2]): 22.96 | relative probability (RP) of matching tetramer (MMP-2): 22.96 | relative probability (RP) (acc.to MMP2) (MMP-2; [12]): 22.96

LAPL [P3-P1' tetramer cluster]
corresponding MMP9 relative probability (RP) (MMP-9): 4.642 | MMP2 relative probability (RP) (MMP-2): 31.5631 | Relative probability (RP) rank (MMP-2; [5]): 227 | relative probability (RP) (MMP-2; [5]): 31.56 | relative_probability (MMP-2; tetramer clusters unique to the MMP-2 selectome, MMP-2 RP): 31.56

ARHYKS
relative probability (RP) (MMP-9; [6]): 23.6532 | relative probability (RP) (MMP-2; [7]): 10.2998

VEPLKF
relative probability (RP) (MMP-9; [6]): 27.4837 | relative probability (RP) (MMP-2; [7]): 11.7082

WGAL
relative probability (RP) (acc.to MMP9) (MMP-9; [3]): 3.54 | normalized RP - MMP9 (MMP-9; unique part of MMP2 selectome): 0.06758 | avg_RP (MMP-2; MMP2 - no binning, average relative probability of the tetramer, redundant tetramers averaged out): 26.3441 | relative probability (RP) of matching tetramer (MMP-2): 26.34 | relative probability (RP) (acc.to MMP2) (MMP-2; [4]): 26.34 | normalized RP - MMP2 (MMP-2; unique part of MMP2 selectome): 0.7212

PTNL
relative probability (RP) (acc.to MMP9) (MMP-9; [8]): 36.13 | relative probability (RP) (acc.to MMP2) (MMP-2; [9]): 31.03

VGKL
corresponding MMP9 relative probability (RP) (MMP-9): 3.141 | Relative probability (RP) rank (MMP-9; [13]): 7569 | relative probability (RP) (MMP-9; [13]): 3.14 | MMP2 relative probability (RP) (MMP-2): 21.0562 | Relative probability (RP) rank (MMP-2; [5]): 1553 | relative probability (RP) (MMP-2; [5]): 21.06

MRPVGH
relative probability (RP) (MMP-9; [6]): 20.8057 | relative probability (RP) (MMP-2; [7]): 23.4937

PGAY
relative probability (RP) (acc.to MMP9) (MMP-9; [8]): 33.81 | relative probability (RP) (acc.to MMP2) (MMP-2; [9]): 27.42

PVNMTD
relative probability (RP) (MMP-9; [6]): 44.4072 | relative probability (RP) (MMP-2; [7]): 30.0312

PGEI
relative probability (RP) (acc.to MMP9) (MMP-9; [1]): 12.83 | relative probability (RP) (MMP-9; [10]): 12.83 | relative probability (RP) (acc.to MMP9) (MMP-9; [11]): 12.83 | relative probability (RP) (acc.to MMP2) (MMP-2; [2]): 14.72 | relative probability (RP) of matching tetramer (MMP-2): 14.72 | relative probability (RP) (acc.to MMP2) (MMP-2; [12]): 14.72

LGRY
relative probability (RP) (acc.to MMP9) (MMP-9; [3]): 1.95 | normalized RP - MMP9 (MMP-9; unique part of MMP2 selectome): 0.03723 | relative probability (RP) of matching tetramer (MMP-2): 17.67 | relative probability (RP) (acc.to MMP2) (MMP-2; [4]): 17.67 | normalized RP - MMP2 (MMP-2; unique part of MMP2 selectome): 0.4838

PAGE
relative probability (RP) (acc.to MMP9) (MMP-9; [8]): 0.06 | relative probability (RP) (acc.to MMP2) (MMP-2; [9]): 0.05

GPHGYK
relative probability (RP) (MMP-9; [6]): 44.1642 | relative probability (RP) (MMP-2; [7]): 24.9359

PAQLHV
relative probability (RP) (MMP-9; [6]): 43.1805 | relative probability (RP) (MMP-2; [7]): 32.8467

PRPQAA
relative probability (RP) (MMP-9; [6]): 37.3898 | relative probability (RP) (MMP-2; [7]): 27.2115

PVLL
relative probability (RP) (acc.to MMP9) (MMP-9; [1]): 19.22 | relative probability (RP) (MMP-9; [10]): 19.22 | relative probability (RP) (acc.to MMP9) (MMP-9; [11]): 19.22 | relative probability (RP) (acc.to MMP2) (MMP-2; [2]): 15.16 | relative probability (RP) of matching tetramer (MMP-2): 15.16 | relative probability (RP) (acc.to MMP2) (MMP-2; [12]): 15.16
